Converted amounts (≈) assume the structure as drawn.
Columns and labels:
DNA = assay: DNA-drug binding by difference spectral (absorption and CD) techniques; conditions: difference spectral or ΔTm techniques
Excerpt: ^b Diff. Absorption Spectra is the calculated absorption spectra
obtained by subtracting the spectrum of the DNAbound analogue from the
spectrum of the free analogue, measured at 340-600 nm.
^c Diff. CD Spectra is the calculated CD Spectra obtained as the
difference of the DNAbound from the combined individual spectra of
analogues and DNA at 340-600 nm.
Medium: 0.01 M phosphate containing 10^-4 EDTA, buffer pH 7.0.
DNA-DRUG BINDING BY DIFFERENCE SPECTRAL AND THERMAL DEVATURATION OF DNA (ΔTm) TECHNIQUES
These experiments were performed according to the methods described by Sengupta et al., Cancer Chemother. Rep., 1974, 58, p. 35, Sengupta et al, J. Med. Chem., 1981, 24, p. 1052 and Sengupta et al, 1983, 26, p. 448, Sengupta et al, 1978, Biochem. Biophys Acta, 521, p. 89.

[1] = tested on: P388 lymphocytic leukemia; assay: In vivo P388 assay; parameters: species or system mice; conditions: ip days 1,5,9; for % ILS (percent increase in life span) / MST (median survival time) / Cure (over 60 day survivors): at optimum dose; for % ILS (percent increase in life span) / MST (median survival time): CDF1 male mice; for MST (median survival time): control MST 11.0 days; for Cure (over 60 day survivors): group of 7 CDF1 male mice, average of 2 experiments
Protocol: ^c 10^6 P388 cells implanted intraperitoneally on day 0 into a
group of 7 CDF1 male mice. Drugs were administered, also ip, in 10%
Me2 SO--saline on days 1,5,9. Test solutions were kept at 0-4.degree
C., protected from light.
These analogues were tested for antitumor activity against P388 lymphocytic leukemia in male CDF1 hybrid mice (Table 6). The tumor was implanted intraperitoneally (ip) with 10^6 cells. The drugs were administered once daily on days 1, 5, 9 beginning 1 day after implantation.

[2] = tested on: human lymphoblastic leukemia cells (CCRF-CEM); assay: In vitro growth inhibition of CCRF-CEM cells; format: cell-based; conditions: for In Vitro (CCRF-CEM) ID50: cells in log-phase growth, suspension culture, final growth medium 5% Me2SO
Protocol: ^b Human lymphoblastic luekemia cells in logphase growth and in a
suspension culture. Compounds were dissolved in Me2 SO medium, final
growth medium contained 5% Me2 SO.
In vitro growth inhibition of the analogues were assayed against human lymphoblastic leukemia cells (CCRF-CEM) in log phase. The most cyctoxic are AMD-OZN analogues 2b and 2g and AMD-OZL analogues 4a-4c. However, compared to AMD, they are several fold less cytotoxic to CEM-cells in vitro.

[3] = Solubility in distilled water
Protocol: SOLUBILITY OF ACTINOMYCIN D AND ANALOGUES 2b, 3b AND 4b IN DISTILLED WATER AT 20° C. AND 4° C.

DNA binding (in words) (DNA) | Compound | % ILS (percent increase in life span) [1] | MST (median survival time) [1] | Cure (over 60 day survivors) [1] | In Vitro (CCRF-CEM) ID50 [2] | cytotoxicity to CEM cells (in words) ([2]; CCRF-CEM in log phase) | antitumor activity against P388 (in words) ([1]; CDF1 mice) | relative solubility in water (in words) [3] | solubility in distilled water ([3]; 4° C.) | solubility in distilled water ([3]; 20° C.) | activity against human cancer cells (in words) ([2]; human cancer cells)
binds to DNA strongly by intercalation | Cc1c2oc3c(C)ccc(C(=O)N[C@@H]4C(=O)N[C@H](C(C)C)C(=O)N5CCC[C@H]5C(=O)N(C)CC(=O)N(C)[C@@H](C(C)C)C(=O)O[C@@H]4C)c3nc-2c(C(=O)N[C@@H]2C(=O)N[C@H](C(C)C)C(=O)N3CCC[C@H]3C(=O)N(C)CC(=O)N(C)[C@@H](C(C)C)C(=O)O[C@@H]2C)cc1=O [2-deamino AMD] |  |  |  |  |  |  |  |  |  | 
 | Cc1ccc(C(=O)N[C@@H]2C(=O)N[C@H](C(C)C)C(=O)N3CCC[C@H]3C(=O)N(C)CC(=O)N(C)[C@@H](C(C)C)C(=O)O[C@@H]2C)c2c1Oc1c(c(C(=O)N[C@@H]3C(=O)N[C@H](C(C)C)C(=O)N4CCC[C@H]4C(=O)N(C)CC(=O)N(C)[C@@H](C(C)C)C(=O)O[C@@H]3C)c3nc(-c4ccccc4Cl)c(=O)oc3c1C)N2 [Compound 2c] | 172% | 30 days | 1/7 | 1.8 µg/mL |  |  |  |  |  | 
 | Cc1ccc(C(=O)N[C@@H]2C(=O)N[C@H](C(C)C)C(=O)N3CCC[C@H]3C(=O)N(C)CC(=O)N(C)[C@@H](C(C)C)C(=O)O[C@@H]2C)c2c1Oc1c(c(C(=O)N[C@@H]3C(=O)N[C@H](C(C)C)C(=O)N4CCC[C@H]4C(=O)N(C)CC(=O)N(C)[C@@H](C(C)C)C(=O)O[C@@H]3C)c3nc(-c4cccc(Cl)c4)c(=O)oc3c1C)N2 [Compound 2d] | 164% | 29 days | 0/7 | 1.6 µg/mL |  |  |  |  |  | 
 | Cc1ccc(C(=O)N[C@@H]2C(=O)N[C@H](C(C)C)C(=O)N3CCC[C@H]3C(=O)N(C)CC(=O)N(C)[C@@H](C(C)C)C(=O)O[C@@H]2C)c2c1Oc1c(c(C(=O)N[C@@H]3C(=O)N[C@H](C(C)C)C(=O)N4CCC[C@H]4C(=O)N(C)CC(=O)N(C)[C@@H](C(C)C)C(=O)O[C@@H]3C)c3nc(-c4ccc(Cl)cc4)c(=O)oc3c1C)N2 [Compound 2e] | 164% | 29 days | 0/7 | 1.6 µg/mL |  |  |  |  |  | 
 | Cc1ccc(C(=O)N[C@@H]2C(=O)N[C@H](C(C)C)C(=O)N3CCC[C@H]3C(=O)N(C)CC(=O)N(C)[C@@H](C(C)C)C(=O)O[C@@H]2C)c2c1Oc1c(c(C(=O)N[C@@H]3C(=O)N[C@H](C(C)C)C(=O)N4CCC[C@H]4C(=O)N(C)CC(=O)N(C)[C@@H](C(C)C)C(=O)O[C@@H]3C)c3nc(-c4ccc(Cl)cc4Cl)c(=O)oc3c1C)N2 [Compound 2f] | 155% | 28 days | 0/7 | 3.2 µg/mL |  |  |  |  |  | 
 | Cc1ccc(C(=O)N[C@@H]2C(=O)N[C@H](C(C)C)C(=O)N3CCC[C@H]3C(=O)N(C)CC(=O)N(C)[C@@H](C(C)C)C(=O)O[C@@H]2C)c2c1Oc1c(c(C(=O)N[C@@H]3C(=O)N[C@H](C(C)C)C(=O)N4CCC[C@H]4C(=O)N(C)CC(=O)N(C)[C@@H](C(C)C)C(=O)O[C@@H]3C)c3nc(-c4c(F)c(F)c(F)c(F)c4F)c(=O)oc3c1C)N2 [Compound 2g] | 186% | 31.5 days | 1/7 | 0.64 µg/mL | most cyctoxic |  |  |  |  | 
 | CCCCCCc1nc2c(C(=O)N[C@@H]3C(=O)N[C@H](C(C)C)C(=O)N4CCC[C@H]4C(=O)N(C)CC(=O)N(C)[C@@H](C(C)C)C(=O)O[C@@H]3C)c3c(c(C)c2oc1=O)Oc1c(C)ccc(C(=O)N[C@@H]2C(=O)N[C@H](C(C)C)C(=O)N4CCC[C@H]4C(=O)N(C)CC(=O)N(C)[C@@H](C(C)C)C(=O)O[C@@H]2C)c1N3 [Compound 2h] | 127% | 25 days | 0/7 | 2.08 µg/mL |  |  |  |  |  | 
 | Cc1ccc(C(=O)N[C@@H]2C(=O)N[C@H](C(C)C)C(=O)N3CCC[C@H]3C(=O)N(C)CC(=O)N(C)[C@@H](C(C)C)C(=O)O[C@@H]2C)c2c1Oc1c(c(C(=O)N[C@@H]3C(=O)N[C@H](C(C)C)C(=O)N4CCC[C@H]4C(=O)N(C)CC(=O)N(C)[C@@H](C(C)C)C(=O)O[C@@H]3C)c3nc(-c4ccc5ccccc5c4)c(=O)oc3c1C)N2 [Compound 2i, 3-(2-NAPHTHYL)-10,12-DIMETHYL-2H,6H-OXAZINO[3,2-b]PHENOXAZINE-2-ONE 5,7-BIS[CARBONYL-L-THREONYL-D-VALYL-L-PROLYLSARCOSYL-L-N-METHYLVALINE-(THR EONINE HYDROXYL)] LACTONE] | 136% | 26 days | 0/7 | 1 µg/mL |  |  |  |  |  | 
 | Cc1ccc(C(=O)N[C@@H]2C(=O)N[C@H](C(C)C)C(=O)N3CCC[C@H]3C(=O)N(C)CC(=O)N(C)[C@@H](C(C)C)C(=O)O[C@@H]2C)c2c1Oc1c(c(C(=O)N[C@@H]3C(=O)N[C@H](C(C)C)C(=O)N4CCC[C@H]4C(=O)N(C)CC(=O)N(C)[C@@H](C(C)C)C(=O)O[C@@H]3C)c3nc(-c4ccccc4)oc3c1C)N2 [Compound 3b, 2-PHENYL-9,11-DIMETHYL-5H-OXAZOLO[4,5-b]PHENOXAZINE 4,6-BIS[CARBONYL-L-THREONYL-D-VALYL-L-PROLYLSARCOSYL-L-N-METHYL-VALINE-(TH REONINE HYDROXYL)] LACTONE] | 109% | 23 days | 0/7 | 9 µg/mL |  |  |  |  |  | 
 | Cc1ccc(C(=O)N[C@@H]2C(=O)N[C@H](C(C)C)C(=O)N3CCC[C@H]3C(=O)N(C)CC(=O)N(C)[C@@H](C(C)C)C(=O)O[C@@H]2C)c2c1Oc1c(c(C(=O)N[C@@H]3C(=O)N[C@H](C(C)C)C(=O)N4CCC[C@H]4C(=O)N(C)CC(=O)N(C)[C@@H](C(C)C)C(=O)O[C@@H]3C)c3nc(-c4c(F)c(F)c(F)c(F)c4F)oc3c1C)N2 [Compound 3c] | 72% | 19 days | 0/7 | 12.5 µg/mL |  |  |  |  |  | 
 | Cc1c2oc3c(C)c4oc(-c5ccccc5)nc4c(C(=O)N[C@@H]4C(=O)N[C@H](C(C)C)C(=O)N5CCC[C@H]5C(=O)N(C)CC(=O)N(C)[C@@H](C(C)C)C(=O)O[C@@H]4C)c3nc-2c(C(=O)N[C@@H]2C(=O)N[C@H](C(C)C)C(=O)N3CCC[C@H]3C(=O)N(C)CC(=O)N(C)[C@@H](C(C)C)C(=O)O[C@@H]2C)cc1=O [Compound 4b, 2-PHENYL-9,11-DIMETHYL-8-OXO-8H-OXAZOLO[4,5-b]PHENOXAZINE 4,6-BIS[CARBONYL-L-THREONYL-D-VALYL-L-PROLYLSARCOSYL-L-N-METHYLVALINE-(THR EONINE HYDROXYL)] LACTONE] | 300% | 44 days | 2/7 | 0.31 µg/mL |  | most active | more soluble in water at 4 °C than at 20 °C | 11000 µg/mL (≈ 8.1 mM) | 1700 µg/mL (≈ 1.25 mM) | highest human antitumor effects
 | Cc1c2oc3c(C)c4oc(-c5c(F)c(F)c(F)c(F)c5F)nc4c(C(=O)N[C@@H]4C(=O)N[C@H](C(C)C)C(=O)N5CCC[C@H]5C(=O)N(C)CC(=O)N(C)[C@@H](C(C)C)C(=O)O[C@@H]4C)c3nc-2c(C(=O)N[C@@H]2C(=O)N[C@H](C(C)C)C(=O)N3CCC[C@H]3C(=O)N(C)CC(=O)N(C)[C@@H](C(C)C)C(=O)O[C@@H]2C)cc1=O [Compound 4c] | 172% | 30 days | 1/7 | 0.63 µg/mL |  |  |  |  |  | 

Reference: patent US4562176A, “Method and composition for treating cancer” (priority 1985, dated 1985)
